In US6455589B1, “Primary N-hydroxylamines” (The Regents of the University of California, priority 1999, dated 2002):
Like-named read-outs stand apart in the source and are kept apart here.

Assays:
[1] = test system: mitochondrial preparations of cerebral cortex; conditions: relatively high concentrations; cited from earlier work
[2] = test system: IMR90 cells; assay: Replicative life span of IMR90 cells (gain in PDLs, delay of senescence); format: cell-based, human; conditions: for Gain in PDLs: continuous cultivation, compared to control untreated cells
Experimental: Cultivating IMR90 cells in culture—Normal human […] fibroblasts (IMR90) cells were obtained from the Coriell Institute for Medical Research at a population doubling level (PDL) of 10.85. The PDLs were calculated as log2(D/Do), where D and Do are defined as the density of cells at the time of harvesting and seeding, respectively. Stock cultures were grown in 100 mm Corning tissue culture dishes containing 10 ml of Dulbecco's modified Eagle's medium (DMEM) supplemented with 10% (V/V) fetal bovine serum (Hyclone). Stock cultures were split once a week when near confluence. Cells were harvested by trypsinization for 5 min at 37° C., immediately collected in 5 ml complete DMEM, washed once with 5 ml complete DMEM and incubated for 10-15 min at 37° C. to allow the cells to recover.
To test the effect of hydroxylamines on replicative life span, IMR90 cells were seeded at 0.5×106 per 100 mm dish. N-hydroxylamines (N-t-butyl hydroxylamine, N-benzyl hydroxylamine, N-methyl hydroxyl- amine) were added either individually (final concentration 10 or 100 μM) or in a combination of all three N-hydroxylamines (30 μM each). The cultures were split after 7 days and seeded with fresh medium supplemented with the hydroxylamines described above. In other experiments the medium of the cultures was replaced after 3 days of seeding with fresh medium and with fresh N-hydroxylamines, the split was done as usual after 7 days from seeding. The effect of PBN on life span was tested as in (5).

[3] = Depression in body temperature; format: in vivo, mice and gerbils; conditions: 500 mg/kg
Experimental: Another undesirable systemic effect which has been observed in vivo with nitrone radical traps is a depression in body temperature. This toxicity can have serious health consequences and also can complicate diagnosis of other conditions. The subject hydroxylamines are administered to mice and gerbils at levels as high as 1000 mg/kg with no measurable temperature decrease. In contrast, PBN gives up to an 8° C. decrease in body temperature at a does of only 500 mg/kg.

[4] = format: in vivo; conditions: 560 mg/kg single i.p. dose
Experimental: An important advantage of the subject hydroxylamines as compared to PBN, is its markedly diminished toxicity. Acute lethality in C57BL/6L mice is determined based upon varying sizes of single i.p. doses of hydoxylamine. […] The hydroxlamines show no toxicity at doses nearly twenty times as great.

[5] = Lethality protection in aged gerbils from 10 min ischemia; format: in vivo; conditions: given 30 min before 10 min ischemia
Experimental: In this study, subject hydroxylamines and PBN are compared for their ability to impart lethality protection (% survived) in aged gerbils (18-24 months of age, n=12/group) from 10 min ischemia when given 30 min before ischemia.

[6] = rat, in vivo; cited from earlier work
[7] = Neuron loss following brain ischemia and reperfusion injury (Examples 14-16); design: species or system gerbils; conditions: in vivo
Experimental: The test procedure is that reported by W. Cao, J. M. Carney, A. Duchon, R. A. Floyd and M. Chevion as “Oxygen free radical involvement in ischemia and reperfusion injury to brain, Neuroscience Letters, 88 (1988), 233. In the experiments a test compound is administered to groups of six gerbils i.p. as a single dose 30 min before 5 min bilateral carotid occlusion. The density of neuronal nuclei in a 100 micron is measured. Two controls are present—controls which receive no test compound and controls which receive no test compound and no brain ischemia. The compounds of the invention show advantages as compared to the prior art compounds.
The general method described above is used but the test compounds are administered i.p. as a single dose 30 min after reperfusion following 5 min ischemia.
Comparing the Subject Hydroxylamines With PBN to Determine the Relative Effectiveness for Protection of Neuronal Loss when Administered i.v. 60 min after Reperfusion Onset Following 5 min Ischemia in Gerbils Using the General Test Method Described Above

[8] = gerbils; cited from earlier work
[9] = 8-arm maze test 24 hours following 5 min ischemia; format: in vivo; conditions: 24 hours post 5 min ischemia, young adult gerbils
Experimental: In this experiment, young adult (3-4 months of age) gerbils are tested to determine their ability to perform an 8-arm maze test 24 hours following an ischemic event as described above As compared to nonischemic animals, when untreated they committed many more errors. PBN and subject hydroxyamines are administered to some of the test animals. Gerbils treated with high doses of the hydroxylamines have error levels indistinguishable from those of nonischemic animals.

[10] = in vivo; cited from earlier work
[11] = in vivo
Experimental: C57BL/6J and DBA/2J male mice (35-40 g) are tested for the acute lethal effects of adriamycin and the prevention of acute lethality by pretreatment doses of subject hydroxylamines. Mice are injected i.p with either saline or subject hydroxylamines 30 minutes prior to administration of adriamycin.

[12] = rats; cited from earlier work
[13] = test system: glutamine synthetase (GS); assay: Protection of glutamine synthetase against the effects of βAP fragments; format: biochemical
Excerpt: (§1) While the hydroxylamines and PBN each show the ability to protect GS and CK against the effects of βAP fragments, the hydroxyamines give complete protection and in fact can at least partly reverse the effects of oxidation. In contrast, PBN's effectiveness is quite limited as it asymptotically levels out at a substantially incomplete level of protection.

[14] = cited from earlier work
[15] = test system: IMR90 cells; conditions: literature (5); cited from earlier work
[16] = Infarct volume following an ischemic event (Example 18); format: in vivo
Excerpt: The Ability of the Subject Hydroxylamines to Reduce Infarct Volume Following an Ischemic Event While PBN and the hydroxylamines are both effective at low doses, at high doses hydroxylamines gave the best protection and PBN was toxic.

[17] = test system: creatine kinase (CK); assay: Protection of creatine kinase against the effects of βAP fragments; format: biochemical
Excerpt: as §1

[18] = 300 mg/kg, in combination with adriamycin

In the case of `CC(C)(C)[N+]([O-])=Cc1ccccc1` [PBN, α-Phenyl-N-t-butyl nitrone], the “Production of hydrogen peroxide” value [1] is given as “reduces”, the “Delay of senescence of IMR90 cells (in words)” value [2] is given as “old solutions were more effective than fresh solutions” and the “Gain in PDLs” value ([2]; 200 μM) is given as 2.4 PDLs. For the same compound, the “Gain in PDLs” value ([2]; 800 μM) was 14.8 PDLs, the “Concentration required to achieve nearly a similar gain in PDLs, relative to N-hydroxylamines” value ([2]; PBN 800 μM vs N-hydroxylamines 100 μM) was 8 times higher and the “Decrease in body temperature” value [3] was at most 8 °C. For the same compound, the Acute toxicity [4] was “significant toxicity”, the “Lethality protection (% survived)” value [5] was “only partially effective” and the “Mitochondrial decay in the liver of old rats” value [6] was “reverses mitochondrial decay”. The “Neuronal density in control gerbils without brain injury” value [7] was “Neither PBN nor the subject hydroxylamines have an effect”, the “Effect after oxidative damage from ischemia/reperfusion injury” value [8] was “neuroprotective effect” and the “Errors in 8-arm maze test” value [9] was “less effective”. For the same compound, the “Age-related oxidative changes in the brains of old gerbils” value [10] was “reverses”, the Sedation ([11]; 100 mg/kg, in combination with adriamycin) was “slight sedation” and the “Combined toxicity (lethality)” value [11, 18] was 10-20%. For the same compound, the Sedation [11, 18] was “marked sedation”, the “Shift in the adriamycin dose-effect curve” value ([11]; pretreatment) was “slight shift to the right” and the “Effect after oxidative damage from ischemia/reperfusion injury” value [12] was “neuroprotective effect”. The “Protection of GS against the effects of βAP fragments” value [13] was “quite limited”, the Senescence ([14]; normal mice) was “delays senescence” and the Senescence ([14]; senescence-accelerated mice) was “delays senescence”. For the same compound, the “Delay of senescence in IMR90” value [15] was “delays senescence”, the “Reduction of infarct volume / toxicity” value ([16]; high doses) was “toxic” and the “Reduction of infarct volume” value ([16]; low doses) was “effective”. The “Protection of CK against the effects of βAP fragments” value [17] was “quite limited”.
